# Measured values from patent US20100104521A1, “COSMETIC AND/OR PHARMACEUTICAL COMPOSITION COMPRISING AS AN ACTIVE PRINCIPLE AT LEAST ONE PEPTIDE AND USE OF THIS PEPTIDE” (SOCIETE D'EXTRACTION DES PRINCIPES ACTIFS SA (VINCIENCE), priority 2006, published 2010).
# Tested on: melanocytes of human skin biopsies
# Test: Ex vivo study of the effect of the peptide on the synthesis of melanin (human skin biopsies, Fontana-Masson staining)
# Format: cell-based
# Details: human skin biopsies 6 mm in ex vivo culture, two applications daily, peptide at 1% starting with a 50-ppm solution, 48 hours
# Method: The aim of this ex vivo study is to highlight the increase in melanization produced by the peptides according to the invention.
# Protocol: Biopsies of human skin 6 mm in diameter are held in an ex vivo culture in the presence of a specific medium (1 g/L DMEM, Ham's F-12, SVF, and antibiotics) on inserts deposited on 6-well plates. […] The duration of the treatment is 48 hours. The biopsies are subsequently fixed in 9% formaldehyde and NaCl (150 mM) for 10 hours and then enclosed in paraffin. Thin-sections of the skin 3 μm thick are then made, and the melanin is specifically stained by the Fontana-Masson technique. […] Conclusions: The peptide of sequence of SEQ ID No. 4 induces a strong increase in the synthesis of melanin by the melanocytes and stimulates the entire process of melanin distribution in the epidermis.
substance,measurement,setting,value
Trp-Lys-Leu-Asp (WKLD) [SEQ ID No. 4],location / distribution of melanin in the epidermis,Fontana-Masson staining,located in the basal layer but is also transported into the supra-basal layers
same,intensity of melanin coloration of skin thin-sections (Fontana-Masson technique),versus biopsies without application,coloration of clearly increased intensity
